# Source: patent US20140220154A1, “METHOD OF TREATING PATHOLOGIC HETEROTOPIC OSSIFICATION” (The United States of America, as represented by the …, priority 2011, published 2014)
# “Also recorded” adds a separate entry of the source.
# Tests used:
# [1] = tested on: bone marrow mesenchymal cells (BMMC); assay: Osteoblastic differentiation of BMMC after removal of Gαs (Von Kossa, Alizarin red staining); format: cell-based, mouse; conditions: osteogenic media 7 days
# Description: FIG. 13: Removal of Gαs from bone marrow mesenchymal cells (BMMC) promotes osteoblastic differentiation, which is inhibited by Hh antagonist, GANT-58 treatment in a dose-dependent manner. BMMCs were isolated from Gαsflox/flox mice and infected with a Cre-containing adenovirus (ad-Cre) to remove Gαs or GFP-containing adenovirus (Ad-GFP) control. Cells were grown to confluence and placed in osteogenic media for 7 days. […] No effect of GANT-58 observed in Ad-GFP treated cells (panels c and e compared to a).
# HO requires an inappropriate increase in bone forming cells (osteoblasts) The role of Gαs in promoting osteoblastic differentiation was tested. Bone marrow mesenchymal cells (BMMC) (also called mesenchymal stem cells) were isolated from Gαs^flox/flox mice. BMMC were isolated by flushing the bone marrow cavity of 6 week old mice and plating cells in Alpha-MEM, 20% FBS, 100 U/mL penicillin, 100 μg/mL streptomycin, 2 mM glutamine. Prior to reaching confluence cells were treated with a Cre- or GFP-containing adenovirus. Upon reaching confluence cells were switched to osteogenic media (DMEM, 10% lot-selected FBS, 100 U/mL penicillin, […] streptomycin, 2 mM glutamine, 10^-4M L-ascorbic acid 2-phosphate and 10 mM α-glycerol phosphate). These cells were infected with a Cre-containing adenovirus to remove Gαs and cultured under conditions that favor osteogenic differentiation. […]
# [2] = tested on: Prx1-cre+; Gαs^flox/− mice; assay: HO formation in vivo in Prx1-cre+; Gαs^flox/− pups from treated pregnant females (Alizarin Red-Alcian Blue staining); set-up: species or system mouse
# Description: FIG. 12: ATO inhibits HO formation in Prx1-cre+; Gαs^flox/− mice. Pregnant females were injected with either […] ATO or vehicle at E13.5, E15.5 and E17.5 and embryos were collected at E18.5. An Alizarin Red-Alcian Blue skeletal prep was performed to assay for the presence of HO between the digits.
# Embryos were skinned and placed in 100% EtOH overnight to fix. Embryos were then placed in staining solution for 2 days (50 mL staining solution=2.5 mL 0.3% Alcian Blue, 2.5 mL 0.1% Alizarin Red, 2.5 mL 100% glacial acetic acid, 42.5 mL 70% EtOH). Embryos were rinsed with water, then placed in 1% KOH until destained, and finally in 80% glycerol for storage.
# Inhibitors of Hh signaling were tested for an ability to inhibit the formation of HO in vivo. Matings were established between Prx1-cre+; Gαs^flox/− male and Gαs^flox/flox female mice. Pregnant females at gestational days E13.5, E15.5 and E17.5 were injected intraperitoneally with 5 mg/kg ATO. Pregnant mice are first weighed and then injected with care so as to avoid injection into uteri. Mice were sacrificed at E18.5, pups were collected, and stained for bone formation by Alizarin Red-Alcian Blue staining. Prx1-cre+; Gαs^flox/− pups from mice injected with vehicle control produced HO as evidenced by enhanced red staining in soft tissues. […]
# [3] = tested on: Hh pathway activation (Ptch1, Gli1, HIP); assay: Limb culture of E14.5 limbs with qRT-PCR for markers of Hh pathway activation; format: cell-based; conditions: Prx1-cre+; Gαs^flox/− mouse limbs isolated at E14.5, cultured in vitro 4 days, 5 μM ATO vs vehicle
# Description: FIG. 8: ATO inhibits elevated Hh signaling in Prx1-cre+; Gαs^flox/− mouse limbs. Control and Prx1-cre+; Gαs^flox/− mouse limbs were isolated at E14.5 and cultured in vitro for 4 days in the BGJB media containing vehicle or 5 μM ATO. Limbs were then collected, RNA isolated and qRT-PCR was performed for markers of Hh pathway activation (Ptch1, Gli1, HIP). In the absence of ATO, expression of these markers was elevated relative to control (6-fold, 5-fold and 17-fold, respectively).
# The formation of HO indicated inappropriate upregulation of a pro-osteogenic pathway (e.g. BMP, Wnt, and/or hedgehog) outside the skeleton. As Gαs is a physiologically important activator of protein kinase A (PKA) and PKA is a potent inhibitor of Hedghehog (Hh) signaling (Jiang, et al., 1995, Cell 80, 563-572), loss of Gαs is likely associated with an upregulation of Hh that was driving HO formation. Accordingly, Hh signaling would be elevated prior to HO formation and overlap in its tissue expression. Quantitative reverse transcriptase polymerase chain reaction (qRT-PCR) was performed on RNA isolated from control and Prx1-cre+; Gαs^flox/− mutant limb tissue at E14.5, prior to HO formation. The following primers were used for qRT-PCR: […]
# Relative expression was quantified using the […] method (Livak, et al., 2001, Methods 25, 402-08). […]
Compound,"tissue mineralization, Von Kossa staining ([1]; Ad-Cre infected BMMC (Gαs removed))","effect on mineralization in control cells, Von Kossa staining ([1]; Ad-GFP treated BMMC (control))","HO in forelimb and hind limb, Alizarin Red-Alcian Blue staining ([2]; pregnant females injected intraperitoneally with 5 mg/kg ATO at E13.5, E15.5 and E17.5, pups collected at E18.5, vs vehicle control)","levels of HO in forelimbs and hind limbs, Alizarin Red-Alcian Blue skeletal prep ([2]; pregnant females injected with 5 μg/kg ATO at E13.5, E15.5 and E17.5, embryos collected at E18.5, relative to vehicle)","expression of markers of Hh pathway activation (Ptch1, Gli1, HIP) by qRT-PCR [3]"
c1cc(-c2sc(-c3ccncc3)c(-c3ccncc3)c2-c2ccncc2)ccn1 [GANT-58],inhibited by GANT-58 in a dose-dependent manner,No effect,,,
arsenic trioxide [ATO],,,significant reduction in HO,reduced levels of HO,dramatic reduction in the Hh pathway activation; also recorded: significantly reduced
